Laboratory results published in US10568876B2, “Tetrahydroisoquinoline derivatives useful as inhibitors of diacylglyceride O-acyltransferase 2” (Merck Sharp & Dohme Corp., priority 2014, dated 2020).

Each molecule was assayed against hDGAT2 (Homo sapiens (Human), UniProt Q96PD7) (assay: DGAT2 Enzymatic Activity Assay). Details: hDGAT2 Sf-9 membrane prep; 25 μM diolein, 10 μM oleoyl-CoA; triolein product by LC/MS/MS; read-out: IC50 values for inhibition of DGAT2.
Format: biochemical
Experimental: Sf-9 insect cells were maintained in Grace's insect cell culture medium with 10% heated-inactivated fetal bovine serum, 1% Pluronic F-68 and 0.14 μg/ml Kanamycine sulfate in Erlenmeyer flasks at 28° C. in a shaker incubator. After infection with untagged hDGAT2 baculovirus at multiplicity of infection (MOI) 0.1 for 48 hours, cells were harvested. Cell pellets were suspended in buffer containing 10 mM Tris-HCl (pH 7.5), 1 mM EDTA (pH 8.0), 250 mM sucrose and Complete Protease Inhibitor Cocktail (Roche Diagnostics Corp., Indianapolis, Ill.), and sonicated on ice. Membrane fractions were isolated by ultracentrifugation (100,000×g pellet), resuspended in the same buffer, and frozen (−80° C.) for later use. The protein concentration was determined with the BCA Protein Assay kit (Pierce Biotechnology Inc., Rockford, Ill.). Expression of protein levels was analyzed by immunoblotting with goat polyclonal DGAT2 antibody C-15 and donkey anti-goat IgG HRP (Santa Cruz Biotechnology, Inc., Santa Cruz, Calif.) followed by detection with ECL reagent (GE Healthcare, Piscataway, N.J.).
LC/MS/MS analyses were performed using Thermal Fisher's LX4-TSQ Vantage system. This system consists of an Agilent binary high-performance liquid chromatography (HPLC) pumps and a TSQ Vantage triple quadrupole MS/MS instrument. For each sample, 2 μL, samples from the top organic layer of in-plate liquid-liquid extraction were injected onto a Thermo Betabasic C4 column (2.1 mm×20 mm, 5 μm particle size). The samples were then eluted using the following conditions; mobile phase: methanol/water with 0.1% ammonium format=92/8 (v/v), flow rate: 1 mL/min, temperature: 25 C. Data was acquired in positive mode using a heated electrospray ionization (HESI) interface. The operational parameters for the TSQ Vantage MS/MS instrument were a spray voltage of 3000 V, capillary temperature of 280° C., vaporizer temperature 400° C., shealth gas 60 arbitrary unit, Aux gas 40 arbitrary units, S-lens 113 and collision gas 0.16 Pascals. […] (SRM) chromatograms of triolein (Q1: 902.9>Q3: 602.3) and internal standard (Q1: 902.9>Q3: 602.3) were collected for 40 sec. The peak area was integrated by Xcalibur Quan software. The ratio between the triolein generated in the reaction and spiked in internal standard were used to generate percentage inhibition and IC50 values. Compound percentage inhibition was calculated by the following formula: Inhibition %=1-[(compound response low control)/(high control low control)]×100%. Potent compounds were titrated and IC50 were calculated by 4 parameter sigmoidal curve fitting formula.
DGAT2 activity was determined by measuring the amount of enzymatic product triolein (1,2,3-Tri(cis-9-octadecenoyl)glycerol) using the membrane prep mentioned above. The assay was carried out in deep well 384 plates in a final volume of 40 μL at room temperature. The assay mixture contained the following: assay buffer (100 mM Tris.Cl, pH 7.0, 20 mM MgCl2, 5% ethanol), 25 μM of diolein, 10 μM of oleoyl-CoA and 10 ng/μL of DGAT2 membrane.

hDGAT2, sequence (Q96PD7 whole entry): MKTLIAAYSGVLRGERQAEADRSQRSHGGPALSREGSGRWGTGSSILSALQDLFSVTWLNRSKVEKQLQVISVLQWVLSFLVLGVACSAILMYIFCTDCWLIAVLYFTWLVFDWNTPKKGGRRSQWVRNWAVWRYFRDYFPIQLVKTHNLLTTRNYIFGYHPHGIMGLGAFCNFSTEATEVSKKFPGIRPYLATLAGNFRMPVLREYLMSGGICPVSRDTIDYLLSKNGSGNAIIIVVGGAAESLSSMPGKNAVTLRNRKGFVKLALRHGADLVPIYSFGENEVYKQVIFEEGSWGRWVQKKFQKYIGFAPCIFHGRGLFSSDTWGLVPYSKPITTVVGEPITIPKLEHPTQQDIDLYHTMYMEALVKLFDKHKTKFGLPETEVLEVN

| SMILES | IC50 |
| --- | --- |
| Cn1nccc1-c1ccc(CNC(=O)[C@@H]2C[C@H]2c2ccccc2)c2c1CCN(C(=O)NC(C)(C)C)C2 (relative stereo) [Example 30, N-(tert-butyl)-5-(1-methyl-1H-pyrazol-5-yl)-8-(((trans)-2-phenylcyclopropanecarboxamido)methyl)-3,4-dihydroisoquinoline-2(1H)-carboxamide] | 1.17 µM |
| Cc1cc(C)n(-c2cccc(-c3ccc(CNC(=O)[C@@H]4C[C@H]4c4ccccc4)c4c3CCN(C(=O)NC(C)(C)C)C4)c2)n1 (relative stereo) [Example 31, N-(tert-butyl)-5-(3-(3,5-dimethyl-1H-pyrazol-1-yl)phenyl)-8-(((trans)-2-phenylcyclopropanecarboxamido)methyl)-3,4-dihydroisoquinoline-2(1H)-carboxamide] | 6.09 µM |
| CC(C)(C)NC(=O)N1CCc2c(-c3ccnc4[nH]ccc34)ccc(CNC(=O)[C@@H]3C[C@H]3c3ccccc3)c2C1 (relative stereo) [Example 32, N-(tert-butyl)-8-(((trans)-2-phenylcyclopropanecarboxamido)methyl)-5-(1H-pyrrolo[2,3-b]pyridin-4-yl)-3,4-dihydroisoquinoline-2(1H)-carboxamide] | 1.46 µM |
| Cn1nnc2ccc(-c3ccc(CNC(=O)[C@@H]4C[C@H]4c4ccccc4)c4c3CCN(C(=O)NC(C)(C)C)C4)cc21 (relative stereo) [Example 33, N-(tert-butyl)-5-(1-methyl-1H-benzo[d][1,2,3]triazol-6-yl)-8-(((trans)-2-phenylcyclopropanecarboxamido)methyl)-3,4-dihydroisoquinoline-2(1H)-carboxamide] | 2.86 µM |
| CC(C)(C)NC(=O)N1CCc2c(-c3cccc(-n4cccn4)c3)ccc(CNC(=O)[C@@H]3C[C@H]3c3ccccc3)c2C1 (relative stereo) [Example 34, 5-(3-(1H-pyrazol-1-yl)phenyl)-N-(tert-butyl)-8-(((trans)-2-phenylcyclopropanecarboxamido)methyl)-3,4-dihydroisoquinoline-2(1H)-carboxamide] | 0.0116 µM |
| CC(C)(C)NC(=O)N1CCc2c(-c3cnn(-c4ccccc4)c3)ccc(CNC(=O)[C@@H]3C[C@H]3c3ccccc3)c2C1 (relative stereo) [Example 35, N-(tert-butyl)-5-(1-phenyl-1H-pyrazol-4-yl)-8-(((trans)-2-phenylcyclopropanecarboxamido)methyl)-3,4-dihydroisoquinoline-2(1H)-carboxamide] | 1.17 µM |
| CC(=O)Nc1cccc(-c2ccc(CNC(=O)[C@@H]3C[C@H]3c3ccccc3)c3c2CCN(C(=O)NC(C)(C)C)C3)c1 (relative stereo) [Example 36, 5-(3-acetamidophenyl)-N-(tert-butyl)-8-(((trans)-2-phenylcyclopropanecarboxamido)methyl)-3,4-dihydroisoquinoline-2(1H)-carboxamide] | 0.352 µM |
| CC(C)Cn1cc(-c2ccc(CNC(=O)[C@@H]3C[C@H]3c3ccccc3)c3c2CCN(C(=O)NC(C)(C)C)C3)cn1 (relative stereo) [Example 37, N-(tert-butyl)-5-(1-isobutyl-1H-pyrazol-4-yl)-8-(((trans)-2-phenylcyclopropanecarboxamido)methyl)-3,4-dihydroisoquinoline-2(1H)-carboxamide] | 0.0956 µM |
| CC(C)(C)NC(=O)N1CCc2c(-c3cccc(C(=O)NC4CC4)c3)ccc(CNC(=O)[C@@H]3C[C@H]3c3ccccc3)c2C1 (relative stereo) [Example 38, N-(tert-butyl)-5-(3-(cyclopropylcarbamoyl)phenyl)-8-(((trans)-2-phenylcyclopropanecarboxamido)methyl)-3,4-dihydroisoquinoline-2(1H)-carboxamide] | 1.43 µM |
| CC(C)(C)NC(=O)N1CCc2c(-c3cccc(NS(C)(=O)=O)c3)ccc(CNC(=O)[C@@H]3C[C@H]3c3ccccc3)c2C1 (relative stereo) [Example 39, N-(tert-butyl)-5-(3-(methylsulfonamido)phenyl)-8-(((trans)-2-phenylcyclopropanecarboxamido)methyl)-3,4-dihydroisoquinoline-2(1H)-carboxamide] | 0.832 µM |
| CC(C)(C)NC(=O)N1CCc2c(-c3cnn(Cc4ccccc4)c3)ccc(CNC(=O)[C@@H]3C[C@H]3c3ccccc3)c2C1 (relative stereo) [Example 40, 5-(1-benzyl-1H-pyrazol-4-yl)-N-(tert-butyl)-8-(((trans)-2-phenylcyclopropanecarboxamido)methyl)-3,4-dihydroisoquinoline-2(1H)-carboxamide] | 4.79 µM |
| Cc1noc(C)c1-c1ccc(CNC(=O)[C@@H]2C[C@H]2c2ccccc2)c2c1CCN(C(=O)NC(C)(C)C)C2 (relative stereo) [Example 41, N-(tert-butyl)-5-(3,5-dimethylisoxazol-4-yl)-8-(((trans)-2-phenylcyclopropanecarboxamido)methyl)-3,4-dihydroisoquinoline-2(1H)-carboxamide] | 1.44 µM |
| CC(C)(C)NC(=O)N1CCc2c(-c3cccc(C(N)=O)c3)ccc(CNC(=O)[C@@H]3C[C@H]3c3ccccc3)c2C1 (relative stereo) [Example 42, N-(tert-butyl)-5-(3-carbamoylphenyl)-8-(((trans)-2-phenylcyclopropanecarboxamido)methyl)-3,4-dihydroisoquinoline-2(1H)-carboxamide] | 0.155 µM |
| CC(C)(C)NC(=O)N1CCc2c(-c3ccn4ncnc4c3)ccc(CNC(=O)[C@@H]3C[C@H]3c3ccccc3)c2C1 (relative stereo) [Example 43, 5-([1,2,4]triazolo[1,5-a]pyridin-7-yl)-N-(tert-butyl)-8-(((trans)-2-phenylcyclopropanecarboxamido)methyl)-3,4-dihydroisoquinoline-2(1H)-carboxamide] | 3.13 µM |
| CC(C)(C)NC(=O)N1CCc2c(-c3cccc4c3CNC4=O)ccc(CNC(=O)[C@@H]3C[C@H]3c3ccccc3)c2C1 (relative stereo) [Example 44, N-(tert-butyl)-5-(1-oxoisoindolin-4-yl)-8-(((trans)-2-phenylcyclopropanecarboxamido)methyl)-3,4-dihydroisoquinoline-2(1H)-carboxamide] | 7.48 µM |
| CC(C)(C)NC(=O)N1CCc2c(-c3ccc4c(c3)CNC4=O)ccc(CNC(=O)[C@@H]3C[C@H]3c3ccccc3)c2C1 (relative stereo) [Example 45, N-(tert-butyl)-5-(1-oxoisoindolin-5-yl)-8-(((trans)-2-phenylcyclopropanecarboxamido)methyl)-3,4-dihydroisoquinoline-2(1H)-carboxamide] | 2.65 µM |
| CCOC(=O)c1cncc(-c2ccc(CNC(=O)[C@@H]3C[C@H]3c3ccccc3)c3c2CCN(C(=O)NC(C)(C)C)C3)c1 (relative stereo) [Example 46, ethyl 5-(2-(tert-butylcarbamoyl)-8-(((trans)-2-phenylcyclopropanecarboxamido)methyl)-1,2,3,4-tetrahydroisoquinolin-5-yl)nicotinate] | 0.00066 µM |
| CC(C)(C)NC(=O)N1CCc2c(-c3cncc(C(F)(F)F)c3)ccc(CNC(=O)[C@@H]3C[C@H]3c3ccccc3)c2C1 (relative stereo) [Example 47, N-(tert-butyl)-8-(((trans)-2-phenylcyclopropanecarboxamido)methyl)-5-(5-(trifluoromethyl)pyridin-3-yl)-3,4-dihydroisoquinoline-2(1H)-carboxamide] | 0.173 µM |
| CC(C)(C)NC(=O)N1CCc2c(-c3cccc(-n4nccn4)c3)ccc(CNC(=O)[C@@H]3C[C@H]3c3ccccc3)c2C1 (relative stereo) [Example 48, 5-(3-(2H-1,2,3-triazol-2-yl)phenyl)-N-(tert-butyl)-8-(((trans)-2-phenylcyclopropanecarboxamido)methyl)-3,4-dihydroisoquinoline-2(1H)-carboxamide] | 0.0976 µM |
| CC(C)(C)NC(=O)N1CCc2c(-c3cccc(-c4nnco4)c3)ccc(CNC(=O)[C@@H]3C[C@H]3c3ccccc3)c2C1 (relative stereo) [Example 49, 5-(3-(1,3,4-oxadiazol-2-yl)phenyl)-N-(tert-butyl)-8-(((trans)-2-phenylcyclopropanecarboxamido)methyl)-3,4-dihydroisoquinoline-2(1H)-carboxamide] | 0.0104 µM |
